Reference: the supplement of paper PMC10307832

Legend:
Experiment in all cases: relative viability (nuclei count vs DMSO), 5 days (fraction); higher = more cells survive
AT-7519 + Vorinostat = compound: O=C(NC1CCNCC1)c1n[nH]cc1NC(=O)c1c(Cl)cccc1Cl [AT-7519] + O=C(CCCCCCC(=O)Nc1ccccc1)NO [Vorinostat] (partner 1 µM)
Procedure, shortened: (§1)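 After 5 days of treatment, lung cancer cells in 1536-well plates were fixed and stained in a single step (final 0.05% Triton X-100, 1% formaldehyde, 1 ug/ml Hoechst) and their nuclei counted on 4× images. Treatment had been applied by pin tool the day after seeding as one drug alone or as a fixed anchor-drug dose with five library-drug doses (not always all listed) in √10 steps. Relative viability is the nuclei count of treated wells divided by that of vehicle wells, and values are medians of duplicate plates.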

AT-7519 + OSI-027 = compound: O=C(NC1CCNCC1)c1n[nH]cc1NC(=O)c1c(Cl)cccc1Cl [AT-7519] + COc1cccc2cc(-c3nc([C@H]4CC[C@H](C(=O)O)CC4)n4ncnc(N)c34)[nH]c12 [OSI-027] (partner 0.5 µM)
Procedure, shortened: as §1

AT-7519 + Linsitinib = compound: O=C(NC1CCNCC1)c1n[nH]cc1NC(=O)c1c(Cl)cccc1Cl [AT-7519] + C[C@]1(O)C[C@@H](c2nc(-c3ccc4ccc(-c5ccccc5)nc4c3)c3c(N)nccn32)C1 [Linsitinib] (partner 1 µM)
Procedure, shortened: as §1

AT-7519 + Alpelisib = compound: O=C(NC1CCNCC1)c1n[nH]cc1NC(=O)c1c(Cl)cccc1Cl [AT-7519] + Cc1nc(NC(=O)N2CCC[C@H]2C(N)=O)sc1-c1ccnc(C(C)(C)C(F)(F)F)c1 [Alpelisib] (partner 2 µM)
Procedure, shortened: as §1

## NCI-H520
AT-7519 + Vorinostat; first compound 0.01 µM
  relative viability: 0.712
AT-7519 + Vorinostat; first compound 0.03162 µM
  relative viability: 0.793
AT-7519 + Vorinostat; first compound 0.3162 µM
  relative viability: 0.659
AT-7519 + Vorinostat; first compound 1 µM
  relative viability: 0.429
AT-7519 + OSI-027; first compound 0.01 µM
  relative viability: 0.254
AT-7519 + OSI-027; first compound 0.03162 µM
  relative viability: 0.285
AT-7519 + OSI-027; first compound 0.3162 µM
  relative viability: 0.26
AT-7519 + OSI-027; first compound 1 µM
  relative viability: 0.241
AT-7519 + Linsitinib; first compound 0.01 µM
  relative viability: 1.01
AT-7519 + Linsitinib; first compound 0.03162 µM
  relative viability: 0.88
AT-7519 + Linsitinib; first compound 0.3162 µM
  relative viability: 0.82
AT-7519 + Linsitinib; first compound 1 µM
  relative viability: 0.454
AT-7519 + Alpelisib; first compound 0.01 µM
  relative viability: 0.81
AT-7519 + Alpelisib; first compound 0.03162 µM
  relative viability: 0.847
AT-7519 + Alpelisib; first compound 0.3162 µM
  relative viability: 0.884
AT-7519 + Alpelisib; first compound 1 µM
  relative viability: 0.478

## NCI-H460
AT-7519 + Vorinostat; first compound 0.01 µM
  relative viability: 0.569
AT-7519 + Vorinostat; first compound 0.03162 µM
  relative viability: 0.619
AT-7519 + Vorinostat; first compound 0.3162 µM
  relative viability: 0.674
AT-7519 + Vorinostat; first compound 1 µM
  relative viability: 0.0847
AT-7519 + OSI-027; first compound 0.01 µM
  relative viability: 0.906
AT-7519 + OSI-027; first compound 0.03162 µM
  relative viability: 0.686
AT-7519 + OSI-027; first compound 0.3162 µM
  relative viability: 0.288
AT-7519 + OSI-027; first compound 1 µM
  relative viability: 0.0567
AT-7519 + Linsitinib; first compound 0.01 µM
  relative viability: 0.712
AT-7519 + Linsitinib; first compound 0.03162 µM
  relative viability: 0.63
AT-7519 + Linsitinib; first compound 0.3162 µM
  relative viability: 0.159
AT-7519 + Linsitinib; first compound 1 µM
  relative viability: 0.0184
AT-7519 + Alpelisib; first compound 0.01 µM
  relative viability: 0.667
AT-7519 + Alpelisib; first compound 0.03162 µM
  relative viability: 0.526
AT-7519 + Alpelisib; first compound 0.3162 µM
  relative viability: 0.322
AT-7519 + Alpelisib; first compound 1 µM
  relative viability: 0.0207

## EKVX
AT-7519 + Vorinostat; first compound 0.01 µM
  relative viability: 0.671
AT-7519 + Vorinostat; first compound 0.03162 µM
  relative viability: 0.636
AT-7519 + Vorinostat; first compound 0.3162 µM
  relative viability: 0.535
AT-7519 + Vorinostat; first compound 1 µM
  relative viability: 0.786
AT-7519 + OSI-027; first compound 0.01 µM
  relative viability: 0.725
AT-7519 + OSI-027; first compound 0.03162 µM
  relative viability: 0.536
AT-7519 + OSI-027; first compound 0.3162 µM
  relative viability: 0.687
AT-7519 + OSI-027; first compound 1 µM
  relative viability: 0.709
AT-7519 + Linsitinib; first compound 0.01 µM
  relative viability: 0.963
AT-7519 + Linsitinib; first compound 0.03162 µM
  relative viability: 0.949
AT-7519 + Linsitinib; first compound 0.3162 µM
  relative viability: 0.928
AT-7519 + Linsitinib; first compound 1 µM
  relative viability: 0.959
AT-7519 + Alpelisib; first compound 0.01 µM
  relative viability: 0.836
AT-7519 + Alpelisib; first compound 0.03162 µM
  relative viability: 0.86
AT-7519 + Alpelisib; first compound 0.3162 µM
  relative viability: 0.76
AT-7519 + Alpelisib; first compound 1 µM
  relative viability: 0.745

## NCI-H358
AT-7519 + Vorinostat; first compound 0.01 µM
  relative viability: 0.646
AT-7519 + Vorinostat; first compound 0.03162 µM
  relative viability: 0.604
AT-7519 + Vorinostat; first compound 0.3162 µM
  relative viability: 0.5
AT-7519 + Vorinostat; first compound 1 µM
  relative viability: 0.108
AT-7519 + OSI-027; first compound 0.01 µM
  relative viability: 0.83
AT-7519 + OSI-027; first compound 0.03162 µM
  relative viability: 0.676
AT-7519 + OSI-027; first compound 0.3162 µM
  relative viability: 0.527
AT-7519 + OSI-027; first compound 1 µM
  relative viability: 0.194
AT-7519 + Linsitinib; first compound 0.01 µM
  relative viability: 0.733
AT-7519 + Linsitinib; first compound 0.03162 µM
  relative viability: 0.592
AT-7519 + Linsitinib; first compound 0.3162 µM
  relative viability: 0.347
AT-7519 + Linsitinib; first compound 1 µM
  relative viability: 0.157
AT-7519 + Alpelisib; first compound 0.01 µM
  relative viability: 0.948
AT-7519 + Alpelisib; first compound 0.03162 µM
  relative viability: 0.712
AT-7519 + Alpelisib; first compound 0.3162 µM
  relative viability: 0.431
AT-7519 + Alpelisib; first compound 1 µM
  relative viability: 0.179

## EPLC-272H
AT-7519 + Vorinostat; first compound 0.01 µM
  relative viability: 0.406
AT-7519 + Vorinostat; first compound 0.03162 µM
  relative viability: 0.328
AT-7519 + Vorinostat; first compound 0.3162 µM
  relative viability: 0.36
AT-7519 + Vorinostat; first compound 1 µM
  relative viability: 0.0395
AT-7519 + OSI-027; first compound 0.01 µM
  relative viability: 0.283
AT-7519 + OSI-027; first compound 0.03162 µM
  relative viability: 0.296
AT-7519 + OSI-027; first compound 0.3162 µM
  relative viability: 0.264
AT-7519 + OSI-027; first compound 1 µM
  relative viability: 0.206
AT-7519 + Linsitinib; first compound 0.01 µM
  relative viability: 0.999
AT-7519 + Linsitinib; first compound 0.03162 µM
  relative viability: 1.1
AT-7519 + Linsitinib; first compound 0.3162 µM
  relative viability: 0.945
AT-7519 + Linsitinib; first compound 1 µM
  relative viability: 1.18
AT-7519 + Alpelisib; first compound 0.01 µM
  relative viability: 0.905
AT-7519 + Alpelisib; first compound 0.03162 µM
  relative viability: 0.957
AT-7519 + Alpelisib; first compound 0.3162 µM
  relative viability: 0.885
AT-7519 + Alpelisib; first compound 1 µM
  relative viability: 0.856

## NCI-H1395
AT-7519 + Vorinostat; first compound 0.01 µM
  relative viability: 0.82
AT-7519 + Vorinostat; first compound 0.03162 µM
  relative viability: 0.655
AT-7519 + Vorinostat; first compound 0.3162 µM
  relative viability: 0.57
AT-7519 + Vorinostat; first compound 1 µM
  relative viability: 0.565
AT-7519 + OSI-027; first compound 0.01 µM
  relative viability: 0.659
AT-7519 + OSI-027; first compound 0.03162 µM
  relative viability: 0.618
AT-7519 + OSI-027; first compound 0.3162 µM
  relative viability: 0.525
AT-7519 + OSI-027; first compound 1 µM
  relative viability: 0.62
AT-7519 + Linsitinib; first compound 0.01 µM
  relative viability: 1.12
AT-7519 + Linsitinib; first compound 0.03162 µM
  relative viability: 1.01
AT-7519 + Linsitinib; first compound 0.3162 µM
  relative viability: 0.978
AT-7519 + Linsitinib; first compound 1 µM
  relative viability: 0.603
AT-7519 + Alpelisib; first compound 0.01 µM
  relative viability: 1.18
AT-7519 + Alpelisib; first compound 0.03162 µM
  relative viability: 1.06
AT-7519 + Alpelisib; first compound 0.3162 µM
  relative viability: 0.898
AT-7519 + Alpelisib; first compound 1 µM
  relative viability: 0.584

## NCI-H2126
AT-7519 + Vorinostat; first compound 0.01 µM
  relative viability: 0.79
AT-7519 + Vorinostat; first compound 0.03162 µM
  relative viability: 0.731
AT-7519 + Vorinostat; first compound 0.3162 µM
  relative viability: 0.646
AT-7519 + Vorinostat; first compound 1 µM
  relative viability: 0.668
AT-7519 + OSI-027; first compound 0.01 µM
  relative viability: 0.668
AT-7519 + OSI-027; first compound 0.03162 µM
  relative viability: 0.665
AT-7519 + OSI-027; first compound 0.3162 µM
  relative viability: 0.575
AT-7519 + OSI-027; first compound 1 µM
  relative viability: 0.688
AT-7519 + Linsitinib; first compound 0.01 µM
  relative viability: 0.747
AT-7519 + Linsitinib; first compound 0.03162 µM
  relative viability: 0.744
AT-7519 + Linsitinib; first compound 0.3162 µM
  relative viability: 0.682
AT-7519 + Linsitinib; first compound 1 µM
  relative viability: 0.675
AT-7519 + Alpelisib; first compound 0.01 µM
  relative viability: 0.766
AT-7519 + Alpelisib; first compound 0.03162 µM
  relative viability: 0.798
AT-7519 + Alpelisib; first compound 0.3162 µM
  relative viability: 0.749
AT-7519 + Alpelisib; first compound 1 µM
  relative viability: 0.695

## LXF-289
AT-7519 + Vorinostat; first compound 0.01 µM
  relative viability: 0.815
AT-7519 + Vorinostat; first compound 0.03162 µM
  relative viability: 0.884
AT-7519 + Vorinostat; first compound 0.3162 µM
  relative viability: 0.771
AT-7519 + Vorinostat; first compound 1 µM
  relative viability: 0.773
AT-7519 + OSI-027; first compound 0.01 µM
  relative viability: 0.758
AT-7519 + OSI-027; first compound 0.03162 µM
  relative viability: 0.666
AT-7519 + OSI-027; first compound 0.3162 µM
  relative viability: 0.706
AT-7519 + OSI-027; first compound 1 µM
  relative viability: 0.737
AT-7519 + Linsitinib; first compound 0.01 µM
  relative viability: 0.957
AT-7519 + Linsitinib; first compound 0.03162 µM
  relative viability: 1.02
AT-7519 + Linsitinib; first compound 0.3162 µM
  relative viability: 1.04
AT-7519 + Linsitinib; first compound 1 µM
  relative viability: 0.933
AT-7519 + Alpelisib; first compound 0.01 µM
  relative viability: 1.03
AT-7519 + Alpelisib; first compound 0.03162 µM
  relative viability: 1.07
AT-7519 + Alpelisib; first compound 0.3162 µM
  relative viability: 1.08
AT-7519 + Alpelisib; first compound 1 µM
  relative viability: 0.921
